Converted amounts (≈) assume the structure as drawn. One block for each molecule: values may come before it.
Columns and labels:
Format in all cases: cell-based
[1] = system: platelet aggregation (collagen); test: Inhibitory action against platelet aggregation, inducer collagen; conditions: for IC50 Collagen 10 μg/ml: Table 1, rabbit PRP; for IC50: Oryctolagus cuniculus, Platelet, collagen 10 μg/ml, rabbit PRP
Procedure: (§1) Inhibitory Action against Platelet Aggregation:
(§2) (1) Materials and Method:
(§3) The sample is tested after dissolved in dimethyl sulfoxide. The preparation is conducted so as to make the final concentration of the solvent 1%. Dimethyl sulfoxide of the same concentration is used as a control. As to inducers for platelet aggregation, ADP (final concentration: 5 μm), AA (arachidonic acid) (final concentration: 150 μM) and collagen (final concentration: 10 μg/ml) are used.
(§4) (2) Preparation of platelet:
Blood is taken from total neck artery of male rabbits of 2.0-2.5 kg body weight. […] The precipitate is further centrifuged at 1600×g for 10 minutes and the resulting supernatant liquid is used as plasma with poor platelet (hereinafter abbreviated as PPP).
(§5) (3) Method for Measuring Aggregation Power:
(§6) A measuring apparatus for platelet aggregation is used and the changes in absorbancy by the aggregation with an elapse of time are recorded.
(§7) Thus, 200 microliters of PRP is taken, its difference between PPP is adjusted to a certain value, then 25 microliters of control solution or test solution is added, the mixture is stirred (1000 rpm) for 1 minutes, 25 microliters of aggregation inducer is added, and the changes in absorbancy are recorded. The inhibitory ratio is calculated from the following expression from the maximum aggregation ratio of the control (A in %) and that of the test solution (B in %): [formula]
as §3, with “μM),” for “μm),”
(§8) Blood is taken from total neck artery of male rabbits of 2.0-2.5 kg body weight. To the blood is added 1/10 volume of 3.8% citric acid solution, the mixture is gently stirred, centrifuged 1300×g for 2 minutes, and the resulting supernatant liquid is used as plasma with abundant platelet (hereinafter abbreviated as PRP). The precipitate is further centrifuged at 1600×g for 10 minutes and the resulting supernatant liquid is used as plasma with poor platelet (hereinafter abbreviated as PPP).
as §7, with “minute,” for “minutes,”

[2] = system: platelet aggregation (ADP); test: Inhibitory action against platelet aggregation, inducer ADP; conditions: for IC50: Oryctolagus cuniculus, Platelet, ADP 5 μM, rabbit PRP; for IC50 ADP 5 μM: Table 1, rabbit PRP
Procedure: as §1, §2, §3, §4
as §8, with “sodium citrate” for “citric acid”
as §5, §6, §7
(§9) Inhibitory ratios with varied test solution concentrations are calculated and the IC50 (50% inhibitory concentration) is calculated therefrom.
as §3, with “μM),” for “μm),”
as §8
as §7, with “minute,” for “minutes,”

[3] = system: platelet aggregation (AA); test: Inhibitory action against platelet aggregation, inducer arachidonic acid (AA); conditions: for IC50: Oryctolagus cuniculus, Platelet, AA 150 μM, rabbit PRP; for IC50 AA 150 μM: Table 1, rabbit PRP
Procedure: as §1, §2, §3, §4
as §8, with “sodium citrate” for “citric acid”
as §5, §6, §7, §9
as §3, with “μM),” for “μm),”
as §8
as §7, with “minute,” for “minutes,”

- IC50 Collagen 10 μg/ml ([1]; listed as B4): 2.9 µg/mL (≈ 6.27 µM)
- IC50 ADP 5 μM ([2]; listed as B4): 6.5 µg/mL (≈ 14.1 µM)
- IC50 AA 150 μM ([3]; listed as B4): 1.2 µg/mL (≈ 2.59 µM)
SMILES: CC1OC(OC2CCC(OC3CCC(OC(=O)c4ccccc4)OC3C)OC2C)CCC1=O (stereo not drawn) [SEN-366-B4]

- IC50 ([1]; Table 1): 0.17 µg/mL (≈ 0.399 µM)
- IC50 ADP 5 μM ([2]; listed as BT1): 1.1 µg/mL (≈ 2.58 µM)
- IC50 AA 150 μM ([3]; listed as BT1): 1.55 µg/mL (≈ 3.63 µM)
SMILES: CCCC(=O)OC1CCC(OC2CCC(OC3C=CC(=O)C(C)O3)C(C)O2)C(C)O1 (stereo not drawn) [SEN-366-BT1]

- IC50 Collagen 10 μg/ml ([1]; listed as BT2): 0.53 µg/mL (≈ 1.24 µM)
- IC50 ADP 5 μM ([2]; listed as BT2): 1.35 µg/mL (≈ 3.15 µM)
- IC50 AA 150 μM ([3]; listed as BT2): 2.1 µg/mL (≈ 4.9 µM)
SMILES: CCCC(=O)OC1CCC(OC2CCC(OC3CCC(=O)C(C)O3)C(C)O2)C(C)O1 (stereo not drawn) [SEN-366-BT2]

- IC50 Collagen 10 μg/ml ([1]; listed as BT3): 0.16 µg/mL (≈ 0.375 µM)
- IC50 ADP 5 μM ([2]; listed as BT3): 0.47 µg/mL (≈ 1.1 µM)
- IC50 AA 150 μM ([3]; listed as BT3): 0.64 µg/mL (≈ 1.5 µM)
SMILES: CCCC(=O)OC1CCC(OC2CCC(OC3C=CC(=O)C(C)O3)C(C)O2)C(C)O1 (stereo not drawn) [SEN-366-BT3]

- IC50 Collagen 10 μg/ml ([1]; listed as BT4): 1.6 µg/mL (≈ 3.73 µM)
- IC50 ADP 5 μM ([2]; listed as BT4): 5.3 µg/mL (≈ 12.4 µM)
- IC50 AA 150 μM ([3]; listed as BT4): 5.7 µg/mL (≈ 13.3 µM)
SMILES: CCCC(=O)OC1CCC(OC2CCC(OC3CCC(=O)C(C)O3)C(C)O2)C(C)O1 (stereo not drawn) [SEN-366-BT4]

- IC50 ([1]; Table 2): 0.06 µg/mL (≈ 0.121 µM)
- IC50 ([2]; Table 2): 0.3 µg/mL (≈ 0.606 µM)
- IC50 ([3]; Table 2): 1.1 µg/mL (≈ 2.22 µM)
SMILES: CC1OC(OC2CCC(OC3CCC(OC(=O)c4ccc(Cl)cc4)OC3C)OC2C)C=CC1=O (stereo not drawn) [SEN-366-CB1]

More lines, now with the values behind:

SMILES: CC(=O)OC1CCC(OC2CCC(OC3C=CC(=O)C(C)O3)C(C)O2)C(C)O1 (stereo not drawn) [SEN-366-A1]
- IC50 Collagen 10 μg/ml ([1]; listed as A1): < 0.1 µg/mL
- IC50 ([2]; Table 1): 0.22 µg/mL (≈ 0.552 µM)
- IC50 ([3]; Table 1): 1.2 µg/mL (≈ 3.01 µM)

SMILES: CC(=O)OC1CCC(OC2CCC(OC3CCC(=O)C(C)O3)C(C)O2)C(C)O1 (stereo not drawn) [SEN-366-A2]
- IC50 ([1]; Table 1): 0.54 µg/mL (≈ 1.35 µM)
- IC50 ADP 5 μM ([2]; listed as A2): 1.6 µg/mL (≈ 4 µM)
- IC50 ([3]; Table 1): 6 µg/mL (≈ 15 µM)

SMILES: CC(=O)OC1CCC(OC2CCC(OC3C=CC(=O)C(C)O3)C(C)O2)C(C)O1 (stereo not drawn) [SEN-366-A3]
- IC50 Collagen 10 μg/ml ([1]; listed as A3): 0.47 µg/mL (≈ 1.18 µM)
- IC50 ADP 5 μM ([2]; listed as A3): 0.44 µg/mL (≈ 1.1 µM)
- IC50 AA 150 μM ([3]; listed as A3): 1.6 µg/mL (≈ 4.02 µM)

SMILES: CC(=O)OC1CCC(OC2CCC(OC3CCC(=O)C(C)O3)C(C)O2)C(C)O1 (stereo not drawn) [SEN-366-A4]
- IC50 Collagen 10 μg/ml ([1]; listed as A4): 0.27 µg/mL (≈ 0.674 µM)
- IC50 ADP 5 μM ([2]; listed as A4): > 10 µg/mL
- IC50 AA 150 μM ([3]; listed as A4): 5.4 µg/mL (≈ 13.5 µM)

SMILES: CC1OC(OC2CCC(OC3CCC(OC(=O)c4ccccc4)OC3C)OC2C)C=CC1=O (stereo not drawn) [SEN-366-B1]
- IC50 ([1]; Table 1): 0.16 µg/mL (≈ 0.347 µM)
- IC50 ([2]; Table 1): 1.1 µg/mL (≈ 2.39 µM)
- IC50 ([3]; Table 1): 0.32 µg/mL (≈ 0.695 µM)

SMILES: CC1OC(OC2CCC(OC3CCC(OC(=O)c4ccccc4)OC3C)OC2C)CCC1=O (stereo not drawn) [SEN-366-B2]
- IC50 ([1]; Table 1): 1.7 µg/mL (≈ 3.68 µM)
- IC50 ([2]; Table 1): 5.7 µg/mL (≈ 12.3 µM)
- IC50 ([3]; Table 1): 1.6 µg/mL (≈ 3.46 µM)

SMILES: CC1OC(OC2CCC(OC3CCC(OC(=O)c4ccccc4)OC3C)OC2C)C=CC1=O (stereo not drawn) [SEN-366-B3]
- IC50 Collagen 10 μg/ml ([1]; listed as B3): 0.17 µg/mL (≈ 0.369 µM)
- IC50 ADP 5 μM ([2]; listed as B3): 1.0 µg/mL (≈ 2.17 µM)
- IC50 AA 150 μM ([3]; listed as B3): 0.55 µg/mL (≈ 1.19 µM)

Source: patent US4751217A, “Physiologically active substances named SEN-366” (Nippon Shinyaku Co., Ltd., priority 1984, dated 1988)
